Measured values from ChEMBL document CHEMBL1201862, “PubChem BioAssay data set” (2004).
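The compound was tested at five concentrations on cells cultured in 96-well plates, with a 48-hour exposure period. GI50: concentration for 50% inhibition of growth.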 The source made the active and inactive calls. Cut-off read from the data, not from the text of the source: active = GI50 up to about 1.1 µM and inactive = higher.

Tests used:
Assay in all cases: inhibition of tumour cell growth, NCI panel, 48 h
786-0 = test system: 786-0
A549 = test system: A549
BT-549 = test system: BT-549
HCT-116 = test system: HCT-116
HOP-92 = test system: HOP-92
K562 = test system: K562
KM12 = test system: KM12
MDA-MB-435 = test system: MDA-MB-435
NCI-H226 = test system: NCI-H226
NCI-H23 = test system: NCI-H23
NCI/ADR-RES = test system: NCI/ADR-RES
OVCAR-4 = test system: OVCAR-4
SF-295 = test system: SF-295
SNB-75 = test system: SNB-75
TK-10 = test system: TK-10
U-251 = test system: U-251
UACC-62 = test system: UACC-62
CCRF-CEM = test system: CCRF-CEM
OVCAR-8 = test system: OVCAR-8

Measured: GI50

Nn1c(CCCCCCCCc2nnc(COc3c(O)ccc4ccccc34)n2N)nnc1COc1c(O)ccc2ccccc12
inactive: 786-0 99.3 µM | A549 > 100 µM | BT-549 > 100 µM | HCT-116 49.5 µM | HOP-92 > 100 µM | K562 > 100 µM | KM12 > 100 µM | MDA-MB-435 > 100 µM | NCI-H226 > 100 µM | NCI-H23 > 100 µM | NCI/ADR-RES > 100 µM | OVCAR-4 59.6 µM | SF-295 > 100 µM | SNB-75 > 100 µM | TK-10 > 100 µM | U-251 > 100 µM | UACC-62 > 100 µM

Cc1ccc(NC(=O)C(=O)C2C(=O)C3=C(CC2(C)C)NC2C=CC=CC2S3)c(C)c1 (stereo not given)
inactive: 786-0 66.4 µM | A549 > 100 µM | BT-549 > 100 µM | CCRF-CEM > 100 µM | HCT-116 > 100 µM | HOP-92 38.1 µM | KM12 > 100 µM | MDA-MB-435 > 100 µM | NCI-H226 56.2 µM | NCI-H23 > 100 µM | NCI/ADR-RES > 100 µM | OVCAR-4 > 100 µM | OVCAR-8 37.5 µM | SF-295 > 100 µM | SNB-75 30.4 µM | TK-10 > 100 µM | U-251 59 µM | UACC-62 > 100 µM

O=CN1CCN(CC(O)CN2CCCCC2)CC1 (stereo not given)
inactive: 786-0 > 100 µM | A549 > 100 µM | BT-549 > 100 µM | CCRF-CEM > 100 µM | HCT-116 > 100 µM | K562 > 100 µM | KM12 > 100 µM | MDA-MB-435 > 100 µM | NCI-H226 > 100 µM | NCI-H23 > 100 µM | NCI/ADR-RES > 100 µM | OVCAR-4 > 100 µM | OVCAR-8 > 100 µM | SF-295 > 100 µM | SNB-75 > 100 µM | TK-10 > 100 µM | U-251 > 100 µM | UACC-62 > 100 µM

CC(=O)NC1C(OCC(=O)NCCNc2ccc([N+](=O)[O-])c3[nH]c4ccccc4c(=O)c23)C(O)C(CO)OC1(C)OCc1ccccc1 (stereo not given)
inactive: 786-0 > 100 µM | A549 > 100 µM | BT-549 > 100 µM | CCRF-CEM > 100 µM | HCT-116 > 100 µM | K562 > 100 µM | KM12 > 100 µM | MDA-MB-435 > 100 µM | NCI-H226 > 100 µM | NCI-H23 > 100 µM | NCI/ADR-RES > 100 µM | OVCAR-4 > 100 µM | OVCAR-8 > 100 µM | SF-295 > 100 µM | SNB-75 > 100 µM | TK-10 > 100 µM | U-251 > 100 µM | UACC-62 > 100 µM

CCC(c1ccccc1)c1cc(C(C)(C)C)cc(C(C)(C)C)c1O (stereo not given)
inactive: 786-0 15.6 µM | A549 16.3 µM | BT-549 19.3 µM | HCT-116 12.9 µM | HOP-92 16.5 µM | K562 16.7 µM | KM12 18.4 µM | MDA-MB-435 18.2 µM | NCI-H226 18.9 µM | NCI-H23 17.2 µM | NCI/ADR-RES 15.4 µM | OVCAR-4 15.8 µM | OVCAR-8 17.3 µM | SF-295 13.9 µM | SNB-75 14.2 µM | TK-10 15.5 µM | U-251 17.7 µM | UACC-62 18 µM

COc1ccc(/N=N/C(=N/NC(=O)c2ccc(C)cc2)c2ccc(N(CCC#N)CCC#N)cc2OC)cc1
inactive: 786-0 > 100 µM | A549 > 100 µM | BT-549 > 100 µM | HCT-116 > 100 µM | HOP-92 > 100 µM | K562 > 100 µM | KM12 > 100 µM | MDA-MB-435 > 100 µM | NCI-H226 > 100 µM | NCI-H23 > 100 µM | NCI/ADR-RES > 100 µM | OVCAR-4 > 100 µM | OVCAR-8 > 100 µM | SF-295 > 100 µM | TK-10 > 100 µM | U-251 > 100 µM | UACC-62 > 100 µM

Cc1c(/C=N\NC(=S)N2CCN(C(=S)N/N=C\c3c(C)n(C)n(-c4ccccc4)c3=O)CC2)c(=O)n(-c2ccccc2)n1C
inactive: 786-0 33.7 µM | A549 47.9 µM | BT-549 44 µM | HCT-116 49.5 µM | HOP-92 40.9 µM | KM12 69.7 µM | MDA-MB-435 4.52 µM | NCI-H226 > 100 µM | NCI-H23 50.9 µM | NCI/ADR-RES > 100 µM | OVCAR-4 > 100 µM | SF-295 28.4 µM | SNB-75 21.8 µM | TK-10 5.7 µM | U-251 29.1 µM | UACC-62 32.9 µM

CC1=CC(C)C(O)C(C)/C=C\C(O)C/C=C(/C)C(=O)CC(O)C(C)\C=C/C=C\C=C/C(=O)NC2=C(O)C(=O)c3c(cc(C)c(O)c3C1=O)C2=O (stereo not given)
inactive: 786-0 > 100 µM | A549 > 100 µM | BT-549 > 100 µM | CCRF-CEM 69.2 µM | HCT-116 58.1 µM | HOP-92 > 100 µM | KM12 56.2 µM | MDA-MB-435 > 100 µM | NCI-H23 > 100 µM | NCI/ADR-RES > 100 µM | OVCAR-4 > 100 µM | OVCAR-8 > 100 µM | SF-295 > 100 µM | SNB-75 25 µM | TK-10 > 100 µM | U-251 > 100 µM | UACC-62 97.7 µM

O=C1CSCC(=O)Nc2ccccc2N1
inactive: 786-0 > 100 µM | A549 > 100 µM | BT-549 > 100 µM | CCRF-CEM > 100 µM | HCT-116 > 100 µM | HOP-92 > 100 µM | K562 > 100 µM | KM12 > 100 µM | MDA-MB-435 > 100 µM | NCI-H226 > 100 µM | NCI-H23 > 100 µM | NCI/ADR-RES > 100 µM | OVCAR-4 > 100 µM | OVCAR-8 > 100 µM | SF-295 > 100 µM | TK-10 > 100 µM | U-251 > 100 µM | UACC-62 > 100 µM

CCOC(=O)C1=NN(c2ccc([N+](=O)[O-])cc2)[C@@]2(C)C[C@]3(c4ccccc4)N(c4ccc([N+](=O)[O-])cc4)N=C(C(=O)OCC)N3c3ccccc3N12
inactive: 786-0 > 100 µM | A549 > 100 µM | BT-549 > 100 µM | CCRF-CEM > 100 µM | HCT-116 > 100 µM | K562 > 100 µM | KM12 > 100 µM | MDA-MB-435 > 100 µM | NCI-H226 > 100 µM | NCI-H23 > 100 µM | NCI/ADR-RES > 100 µM | OVCAR-4 > 100 µM | OVCAR-8 > 100 µM | SF-295 > 100 µM | SNB-75 > 100 µM | TK-10 > 100 µM | U-251 > 100 µM | UACC-62 > 100 µM

COc1c(O)cc(C(=O)O[C@@H]2Cc3c(O)cc(O)cc3O[C@@H]2c2cc(O)c(O)c(O)c2)cc1O
inactive: 786-0 18.5 µM | A549 23 µM | BT-549 25.3 µM | HCT-116 17.9 µM | HOP-92 > 100 µM | K562 22.8 µM | KM12 20.1 µM | MDA-MB-435 17.4 µM | NCI-H23 31.5 µM | NCI/ADR-RES 32.9 µM | OVCAR-4 20.2 µM | OVCAR-8 23.3 µM | SF-295 20.3 µM | TK-10 > 100 µM | UACC-62 25.8 µM
